Results: patent US11793746B2, “Intense skin hydration systems and methods” (priority 2020, dated 2023)

Experiments:
[1] = tested on: collagen I and III synthesis; test: [3H]-Proline incorporation as measure of collagen deposition; format: cell-based, human; conditions: in vitro
Excerpt: This human skin substrate consists of neonatal foreskin fibroblasts that secrete a functionally active extracellular matrix grown on a medical-grade nylon mesh cocultured with human neonatal foreskin keratinocytes that differentiate into a multilayered epidermis.
Quantifying proline incorporation can be used to measure potential collagen deposition stimulated by a test substance. This concept is the foundation for the following experiments.

[2] = tested on: ultraviolet-induced erythema; test: Ultraviolet-induced erythema, erythema scale; format: in vivo; conditions: for Erythema score (mean ± SD): scale 0 none to 4 severe
Protocol: The anti-inflammatory activity of GC-100 was evaluated using ultraviolet-induced erythema as an endpoint.
Ultraviolet radiation generates a predictable, dose-dependent cutaneous response over time. The pathological mechanism includes injury to epidermal, dermal, and vascular constituents of the skin with a local inflammatory response mediated by proinflammatory cytokines and prostaglandins. It is the objective of this experiment to determine whether GC-100 can alleviate an ultraviolet-mediated inflammatory response by qualitative assessment
Erythema was quantified after 2, 4, 5, and 24 hours following irradiation using a standard erythema scale that has been shown historically to yield reproducible results.

[3] = tested on: collagen I and collagen III; test: Collagen deposition by light and electron microscopy; conditions: 20,000×; vs untreated control
Protocol: Skin tissue treated with GC-100 in the absence of ascorbic acid was prepared to illustrate collagen deposition. Tissue samples were first pretreated with Bouin's solution to intensify subsequent staining results. Samples were then treated with Mason's trichrome stain, which combines the plasma stain (chromotrope 2R) and connective tissue fiber stain)aniline blue) in a phosphotungstic acid solution to which glacial acetic acid was added. The collagen absorbs the tungsten ion, which may be visualized due to the complexed aniline blue.
Staining for specific collagen types was achieved using specific standardized indirect immunoperoxidase attains for collagen I and III, respectively.
Collagen deposition assessments are based on the visual interpretation of two endpoints: Collagen I and Collagen III. An untreated control and a tissue sample treated with GC-100 were stained to reveal collagen I. A similar method of comparison was used to illustrate collagen III deposition in control and treated tissue.
Tissues used for light microscopy were place in Karnovsky's fixative for additional evaluation using electron microscopy standard technique. Magnification power of 20,000× was used for visualization of the lower dermis.

[4] = tested on: photodamaged human skin; test: Pilot open label study on photoaged skin: panelist questionnaire and side effects; format: in vivo
Protocol: A pilot open label study was conducted to establish the efficacy of GC-100 on photoaged skin in a clinical setting.
Primary endpoints for this study were as follows: • 1. Epidermal skin thickness was measured using high frequency ultrasound. • 2. Panelists regard for their overall appearance and any changes noted in the appearance of their wrinkles, lentigines, facial acne and pore size were used in qualitative analysis. In addition, panelists were asked to comment on irritation, novel rashes, and other side effects during the study period.
An open label, six week pilot study to examiner the regenerative effect of GC-100 was performed on 15 women with mild to moderate dermatoheliosis as defined by clinical examination. Exclusion criteria selected against patients with a history of retinoic acid use, dermabrasion, or chemical peel application within 6 months prior to study onset. However, all patients had used one or more of these products previously. After appropriate informed consent was obtained, baseline measurements of epidermal thickness using high frequency untrasonography (20 MHz and above) were collected using skin at the infraorbital prominence. Three measurements were taken at each site and averaged to yield a result. GC-100 was applied to the face and neck according to the following schedule: • Weekly: GC-100 applied in mask vehicle • Twice daily: GC-100 applied through lotion vehicle
The patient population was divided into two groups, where Group I was evaluated after 24 hours of product application, and Group II was evaluated at the conclusion of weeks 2, 4 and 6. A panelist questionnaire was completed during each evaluation session.

Substance: H-Lys-Pro-NH2 [GC-100]
- proline incorporation relative to Retin-A (retinoic acid) 0.025% [1]: more than twice
- % printed under erythema score (reduction vs control) ([2]; 0.1% GC-100, 2 hrs): 32%
- Erythema score (mean ± SD) ([2]; 0.1% GC-100, 2 hrs after irradiation): 1.89 ± 0.60
- % printed under erythema score (reduction vs control) ([2]; 0.1% GC-100, 4 hrs): 58.7%
- Erythema score (mean ± SD) ([2]; 0.1% GC-100, 4 hrs after irradiation): 1.56 ± 0.53
- % printed under erythema score (reduction vs control) ([2]; 0.1% GC-100, 5 hrs): 58.3%
- Erythema score (mean ± SD) ([2]; 0.1% GC-100, 5 hrs after irradiation): 1.67 ± 0.71
- % printed under erythema score (reduction vs control) ([2]; 0.1% GC-100, 24 hrs): 50%
- Erythema score (mean ± SD) ([2]; 0.1% GC-100, 24 hrs after irradiation): 1.00 ± 0.71
- effect on ultraviolet-induced erythema ([2]; 0.1%, 0.5%, 1% GC-100, greatest activity with 1%): ability to suppress ultraviolet-induced erythema
- % printed under erythema score (reduction vs control) ([2]; 0.5% GC-100, 2 hrs): 56.1%
- Erythema score (mean ± SD) ([2]; 0.5% GC-100, 2 hrs after irradiation): 1.22 ± 0.44
- % printed under erythema score (reduction vs control) ([2]; 0.5% GC-100, 4 hrs): 58.7%
- Erythema score (mean ± SD) ([2]; 0.5% GC-100, 4 hrs after irradiation): 1.56 ± 0.53
- % printed under erythema score (reduction vs control) ([2]; 0.5% GC-100, 5 hrs): 58.7%
- Erythema score (mean ± SD) ([2]; 0.5% GC-100, 5 hrs after irradiation): 1.56 ± 0.53
- % printed under erythema score (reduction vs control) ([2]; 0.5% GC-100, 24 hrs): 55.5%
- Erythema score (mean ± SD) ([2]; 0.5% GC-100, 24 hrs after irradiation): 0.89 ± 0.33
- % printed under erythema score (reduction vs control) ([2]; 1.0% GC-100, 2 hrs): 64%
- Erythema score (mean ± SD) ([2]; 1.0% GC-100, 2 hrs after irradiation): 1.00
- % printed under erythema score (reduction vs control) ([2]; 1.0% GC-100, 4 hrs): 67%
- Erythema score (mean ± SD) ([2]; 1.0% GC-100, 4 hrs after irradiation): 1.22 ± 0.44
- % printed under erythema score (reduction vs control) ([2]; 1.0% GC-100, 5 hrs): 66.81%
- Erythema score (mean ± SD) ([2]; 1.0% GC-100, 5 hrs after irradiation): 1.33 ± 0.50
- % printed under erythema score (reduction vs control) ([2]; 1.0% GC-100, 24 hrs): 83.5%
- Erythema score (mean ± SD) ([2]; 1.0% GC-100, 24 hrs after irradiation): 0.33 ± 0.50
- collagen fibers in lower dermis, electron microscopy [3]: collagen fiber density is increased
- Incidence of side effects ([4]; panelist questionnaire): 0%
- Positive response: Decreased appearance of lentigines ([4]; panelist questionnaire): 54%
- Positive response: Decreased appearance of pores ([4]; panelist questionnaire): 92%
- Positive response: Decreased appearance of wrinkles ([4]; panelist questionnaire): 62%
- Positive response: Decreased incidence of blemishes ([4]; panelist questionnaire): 92%
- Positive response: Improved overall cosmetic appearance ([4]; panelist questionnaire): 92%
- clinical irritation during the study ([4]; six week study, face and neck): No clinically detectable irritation
